{"source": "patent US12371748B2", "about": "“Genetic markers for predicting responsiveness to therapy with HDL-raising or HDL mimicking agent” (Hoffmann-La Roche Inc., priority 2014, dated 2025)", "system": "patients recently hospitalized for an Acute Coronary Syndrome (ACS)", "assay": "dal-OUTCOMES pharmacogenomic study: cardiovascular events by ADCY9 genotype (Cox proportional hazards)", "assay_type": "in vivo, human", "design": "key to Responsiveness to treatment: NR = non-responsive; PR = partially responsive; R = responsive", "conditions": "for HR, dal-OUTCOMES: per copy of minor allele; for Hazard ratio (dal vs placebo): time to events", "method": "Dal-OUTCOMES trial (NC20971) was a double blind, randomized, placebo-controlled, parallel group, multi-center, phase III study to assess the safety and efficacy of the CETP inhibitor dalcetrapib in patients recently hospitalized for an Acute Coronary Syndrome (ACS). At time of the interim analysis the study included 15871 randomized patients, distributed over two treatment arms: placebo (7933 patients) and dalcetrapib (600 mg daily; 7938 patients). […] The dal-OUTCOMES study details can be found in G. Schwartz et al., N. Engl. J. Med. 367; 22, 2012.\ndal-Outcomes patients were recruited 4 to 12 weeks following hospitalization for acute coronary syndrome characterized by elevated cardiac biomarkers, with symptoms of acute myocardial ischemia, ischemic electrocardiographic abnormalities that were new or presumed to be new, or loss of viable myocardium on imaging. Patients without elevated cardiac biomarkers were eligible to participate if symptoms of acute myocardial ischemia were accompanied by electrocardiographic changes that were new or presumed to be new and by additional evidence of obstructive coronary disease. (Schwartz G G et al. Am Heart J 2009; 158:896-901 e3).\nAll patients were following individualized programs to target LDL cholesterol levels of 100 mg per deciliter (2.6 mmol per liter) or lower by statin if tolerated and diet. No specific statin agent was specified, and patients were not excluded based on LDL cholesterol values. Patients with serum triglyceride levels of 400 mg per deciliter (4.5 mmol per liter) or higher were excluded. (Schwartz G G et al. N Engl J Med 2012; 367:2089-99) Eligible participants to the dal-Outcomes trial entered a single-blind placebo run-in period of approximately 4 to 6 weeks to allow for patients to stabilise and for completion of planned revascularisation procedures. At the end of the run-in period, eligible patients in stable condition were randomised in a 1:1 ratio to 600 mg of dalcetrapib or placebo on top of evidence-based medical care for acute coronary syndrome. Cardiovascular events were adjudicated by an independent clinical endpoint committee. For the pharmacogenomics study, 6338 patients were recruited from April 2008 through July 2010 at 461 sites in 14 countries and provided written informed consent to participate to the genetic study of the dal-OUTCOMES trial. DNA was extracted from whole blood. Following genomic data cleanup, samples from 5749 Caucasian patients were used for the discovery genome-wide association study (GWAS).\nThe Illumina Infinium HumanOmni2.5Exome-8v1_A BeadChip including 2,567,845 genetic variants (Illumina, San Diego, California) was used for the discovery GWAS of 5749 Caucasian participants to the dal-OUTCOMES study. The chromosome 16 region including 5 genes upstream and downstream of the adenylate cyclase type 9 (ADCY9) gene (CHR16: 3,400,000-4,600,000) was imputed using IMPUTE2, providing 17,764 variants for analysis with an average completion rate of 99.76%. A Sequenom panel was used for the confirmation of imputed single nucleotide polymorphisms (SNPs) in the ADCY9 gene identified in dal-OUTCOMES and were tested in the dal-PLAQUE-2 study, including 20 SNPs with P values<0.05 from the discovery GWAS.\nGenome-wide association study (GWAS)—Genome-wide genotyping was performed using 200 ng of genomic DNA in GLP-environment at the Beaulieu-Saucier Pharmacogenomics Centre (Montreal, Canada). The Illumina Infinium HumanOmni2.5Exome-8v1_A BeadChip (Illumina, San Diego, CA) including 2,567,845 genomic markers was used and processed according to the manufacturer's specifications. This chip includes over 200,000 exome variants identified through the Exome Chip Consortium. The remaining BeadChip content is a mix of rare and common SNPs from the 1000 Genome Project designed to be maximally informative for diverse world populations. Each BeadChip was scanned and analyzed using the Illumina iScan Reader. […]"}
{"smiles": "CCC(CC)CC1(C(=O)Nc2ccccc2SC(=O)C(C)C)CCCCC1", "note": "[dalcetrapib, thioisobutyric acid S-(2-{[1-(2-ethyl-butyl)-cyclohexanecarbonyl]-amino}-phenyl) ester]", "values": [{"measurement": "HR, association of rs2238448 with events in dal-OUTCOMES", "setting": "dalcetrapib arm, genetic effect", "value": 0.67}, {"measurement": "Patients with events", "setting": "dalcetrapib arm, rs1967309 AA", "value": 38}, {"measurement": "Patients without events", "setting": "dalcetrapib arm, rs1967309 AA", "value": 447}, {"measurement": "Patients with events", "setting": "dalcetrapib arm, rs1967309 AG", "value": 176}, {"measurement": "Patients without events", "setting": "dalcetrapib arm, rs1967309 AG", "value": 1203}, {"measurement": "Patients with events", "setting": "dalcetrapib arm, rs1967309 GG", "value": 176}, {"measurement": "Patients without events", "setting": "dalcetrapib arm, rs1967309 GG", "value": 802}, {"measurement": "HR, dal-OUTCOMES", "setting": "rs1967309, Cox additive genetic model", "value": 0.651}, {"measurement": "HR, dalcetrapib compared to placebo, coronary revascularizations removed from the endpoint", "setting": "rs1967309 AA", "value": 0.60}, {"measurement": "Responsiveness to treatment", "setting": "rs1967309 AA", "value": "R"}, {"measurement": "reduction in pre-specified composite endpoint with dalcetrapib compared to placebo", "setting": "rs1967309 AA (n=961)", "value": 39, "unit": "%"}, {"measurement": "HR, composite endpoint, dalcetrapib compared to placebo", "setting": "rs1967309 AA (n=961), discovery cohort", "value": 0.61}, {"measurement": "Hazard ratio (dal vs placebo)", "setting": "rs1967309 AA", "value": 0.625}, {"measurement": "Responsiveness to treatment", "setting": "rs1967309 AG", "value": "PR"}, {"measurement": "Hazard ratio (dal vs placebo)", "setting": "rs1967309 AG", "value": 0.953}, {"measurement": "Responsiveness to treatment", "setting": "rs1967309 GG", "value": "NR"}, {"measurement": "increase in cardiovascular events, dalcetrapib versus placebo", "setting": "rs1967309 GG (n=1984)", "value": 27, "unit": "%"}, {"measurement": "HR, cardiovascular events, dalcetrapib versus placebo", "setting": "rs1967309 GG (n=1984), discovery cohort", "value": 1.27}, {"measurement": "Hazard ratio (dal vs placebo)", "setting": "rs1967309 GG", "value": 1.248}, {"measurement": "response to dalcetrapib in words", "setting": "rs1967309 heterozygous AG", "value": "intermediate response"}, {"measurement": "HR, cardiovascular events, dalcetrapib versus placebo", "setting": "rs1967309 heterozygous AG (n=2796), discovery cohort", "value": 0.94}, {"measurement": "HR, dal-OUTCOMES", "setting": "rs2238448, Cox additive genetic model", "value": 0.671}, {"measurement": "Responsiveness to treatment", "setting": "rs2238448 CC", "value": "NR"}, {"measurement": "Hazard ratio (dal vs placebo)", "setting": "rs2238448 CC", "value": 1.291}, {"measurement": "Responsiveness to treatment", "setting": "rs2238448 CT", "value": "PR"}, {"measurement": "Hazard ratio (dal vs placebo)", "setting": "rs2238448 CT", "value": 0.974}, {"measurement": "Responsiveness to treatment", "setting": "rs2238448 TT", "value": "R"}, {"measurement": "Hazard ratio (dal vs placebo)", "setting": "rs2238448 TT", "value": 0.657}, {"measurement": "HR, dal-OUTCOMES", "setting": "rs2239310, Cox additive genetic model", "value": 0.674}, {"measurement": "Responsiveness to treatment", "setting": "rs2239310 AA", "value": "NR"}, {"measurement": "Hazard ratio (dal vs placebo)", "setting": "rs2239310 AA", "value": 1.150}, {"measurement": "Responsiveness to treatment", "setting": "rs2239310 AG", "value": "PR"}, {"measurement": "Hazard ratio (dal vs placebo)", "setting": "rs2239310 AG", "value": 0.971}, {"measurement": "Responsiveness to treatment", "setting": "rs2239310 GG", "value": "R"}, {"measurement": "Hazard ratio (dal vs placebo)", "setting": "rs2239310 GG", "value": 0.623}, {"measurement": "HR, dal-OUTCOMES", "setting": "rs2283497, Cox additive genetic model", "value": 0.766}, {"measurement": "Responsiveness to treatment", "setting": "rs2283497 GG", "value": "NR"}, {"measurement": "Hazard ratio (dal vs placebo)", "setting": "rs2283497 GG", "value": 1.226}, {"measurement": "Responsiveness to treatment", "setting": "rs2283497 GT", "value": "PR"}, {"measurement": "Hazard ratio (dal vs placebo)", "setting": "rs2283497 GT", "value": 0.999}, {"measurement": "Responsiveness to treatment", "setting": "rs2283497 TT", "value": "R"}, {"measurement": "Hazard ratio (dal vs placebo)", "setting": "rs2283497 TT", "value": 0.581}, {"measurement": "HR, dal-OUTCOMES", "setting": "rs2531967, Cox additive genetic model", "value": 0.734}, {"measurement": "Responsiveness to treatment", "setting": "rs2531967 AA", "value": "R"}, {"measurement": "Hazard ratio (dal vs placebo)", "setting": "rs2531967 AA", "value": 0.786}, {"measurement": "Responsiveness to treatment", "setting": "rs2531967 AG", "value": "PR"}, {"measurement": "Hazard ratio (dal vs placebo)", "setting": "rs2531967 AG", "value": 0.855}, {"measurement": "Responsiveness to treatment", "setting": "rs2531967 GG", "value": "NR"}, {"measurement": "Hazard ratio (dal vs placebo)", "setting": "rs2531967 GG", "value": 1.121}, {"measurement": "HR, dal-OUTCOMES", "setting": "rs2531971, Cox additive genetic model", "value": 0.664}, {"measurement": "Responsiveness to treatment", "setting": "rs2531971 AA", "value": "R"}, {"measurement": "Hazard ratio (dal vs placebo)", "setting": "rs2531971 AA", "value": 0.660}, {"measurement": "Responsiveness to treatment", "setting": "rs2531971 AC", "value": "PR"}, {"measurement": "Hazard ratio (dal vs placebo)", "setting": "rs2531971 AC", "value": 0.965}, {"measurement": "Responsiveness to treatment", "setting": "rs2531971 CC", "value": "NR"}, {"measurement": "Hazard ratio (dal vs placebo)", "setting": "rs2531971 CC", "value": 1.254}, {"measurement": "HR, dal-OUTCOMES", "setting": "rs3730119, Cox additive genetic model", "value": 0.763}, {"measurement": "Responsiveness to treatment", "setting": "rs3730119 AA", "value": "R"}, {"measurement": "Hazard ratio (dal vs placebo)", "setting": "rs3730119 AA", "value": 0.472}, {"measurement": "Responsiveness to treatment", "setting": "rs3730119 AG", "value": "PR"}, {"measurement": "Hazard ratio (dal vs placebo)", "setting": "rs3730119 AG", "value": 0.887}, {"measurement": "Responsiveness to treatment", "setting": "rs3730119 GG", "value": "NR"}, {"measurement": "Hazard ratio (dal vs placebo)", "setting": "rs3730119 GG", "value": 1.059}, {"measurement": "HR, dal-OUTCOMES", "setting": "rs4786454, Cox additive genetic model", "value": 0.668}, {"measurement": "Responsiveness to treatment", "setting": "rs4786454 AA", "value": "R"}, {"measurement": "Hazard ratio (dal vs placebo)", "setting": "rs4786454 AA", "value": 0.573}, {"measurement": "Responsiveness to treatment", "setting": "rs4786454 AG", "value": "PR"}, {"measurement": "Hazard ratio (dal vs placebo)", "setting": "rs4786454 AG", "value": 0.91}, {"measurement": "Responsiveness to treatment", "setting": "rs4786454 GG", "value": "NR"}, {"measurement": "Hazard ratio (dal vs placebo)", "setting": "rs4786454 GG", "value": 1.062}, {"measurement": "HR, dal-OUTCOMES", "setting": "rs8049452, Cox additive genetic model", "value": 1.413}, {"measurement": "Responsiveness to treatment", "setting": "rs8049452 CC", "value": "R"}, {"measurement": "Hazard ratio (dal vs placebo)", "setting": "rs8049452 CC", "value": 0.804}, {"measurement": "Responsiveness to treatment", "setting": "rs8049452 CT", "value": "PR"}, {"measurement": "Hazard ratio (dal vs placebo)", "setting": "rs8049452 CT", "value": 0.971}, {"measurement": "Responsiveness to treatment", "setting": "rs8049452 TT", "value": "NR"}, {"measurement": "Hazard ratio (dal vs placebo)", "setting": "rs8049452 TT", "value": 1.543}, {"measurement": "HR, dal-OUTCOMES", "setting": "rs8061182, Cox additive genetic model", "value": 1.343}]}
